Assay results from patent US5441941A, “1,2-dihydroellipticines with activity against CNS specific cancer” (The United States of America as represented by the …, priority 1993, dated 1995).

Assays:
HCC-2998 = test: cells; conditions: Homo sapiens
NCI-H23 = test: NCI in vitro screen, SRB percent growth, Non-Small Cell Lung Cancer
SK-MEL-2 = test: NCI in vitro screen, SRB percent growth, Melanoma
SNB-78 = test: NCI in vitro screen, SRB percent growth, CNS Cancer
SK-MEL-5 = test: NCI in vitro screen, SRB percent growth, Melanoma
OVCAR-8 = test: NCI in vitro screen, SRB percent growth, Ovarian Cancer
HCT-15 = test: NCI in vitro screen, SRB percent growth, Colon Cancer
IGROV1 = test: NCI in vitro screen, SRB percent growth, Ovarian Cancer
NCI-H460 = test: NCI in vitro screen, SRB percent growth, Non-Small Cell Lung Cancer
UO-31 = test: NCI in vitro screen, SRB percent growth, Renal Cancer
CAKI-1 = test: as above
COLO 205 = test: NCI in vitro screen, SRB percent growth, Colon Cancer
OVCAR-5 = test: NCI in vitro screen, SRB percent growth, Ovarian Cancer
SW-620 = test: cells; conditions: Homo sapiens
ACHN = test: NCI in vitro screen, SRB percent growth, Renal Cancer
EKVX = test: cells; conditions: Homo sapiens
[1] = HCC 2998, read-out: Percent Growth
[2] = Log10 Concentration -4.0, 100 µM
[3] = Log10 Concentration -7.0, 0.1 µM
[4] = SW-620, read-out: Percent Growth

Structure (SMILES): Cc1ccc2[nH]c3c(C)c4c(c(C)c3c2c1)CN(C)C=C4 [Formula XI]
- GI50 (HCC-2998; HCC 2998): 1.69 µM
- CC50 (HCC-2998; HCC 2998, read-out: LC-50): 7.89 µM
- activity at 0.01 µM (HCC-2998; [1]): 105%
- activity at 0.1 µM (HCC-2998; [1]): 108%
- activity at 1 µM (HCC-2998; [1]): 84%
- activity at 10 µM (HCC-2998; [1]): -65%
- activity at 100 µM (HCC-2998; [1]): -91%
- IC (TGI) (HCC-2998; HCC 2998, read-out: TGI): 3.65 µM
- Percent Growth (NCI-H23; [2]): -85%
- Percent Growth (NCI-H23; Log10 Concentration -5.0): -75%
- Percent Growth (NCI-H23; Log10 Concentration -6.0, 1 µM): 42%
- Percent Growth (NCI-H23; [3]): 97%
- Percent Growth (NCI-H23; Log10 Concentration -8.0): 95%
- TGI (NCI-H23; PG=0): 2.29 µM
- GI50 (NCI-H23; PG=+50): 0.668 µM
- CC50 (NCI-H23; read-out: LC-50, PG=-50): 6.15 µM
- Percent Growth (SK-MEL-2; [2]): -94%
- Percent Growth (SK-MEL-2; Log10 Concentration -5.0): -92%
- Percent Growth (SK-MEL-2; Log10 Concentration -6.0, 1 µM): 94%
- Percent Growth (SK-MEL-2; [3]): 103%
- Percent Growth (SK-MEL-2; Log10 Concentration -8.0): 98%
- TGI (SK-MEL-2; PG=0): 3.2 µM
- GI50 (SK-MEL-2; PG=+50): 1.72 µM
- CC50 (SK-MEL-2; read-out: LC-50, PG=-50): 5.96 µM
- Percent Growth (SNB-78; [2]): -75%
- Percent Growth (SNB-78; Log10 Concentration -5.0): -33%
- Percent Growth (SNB-78; Log10 Concentration -6.0, 1 µM): 38%
- Percent Growth (SNB-78; [3]): 128%
- Percent Growth (SNB-78; Log10 Concentration -8.0): 131%
- TGI (SNB-78; PG=0): 3.41 µM
- GI50 (SNB-78; PG=+50): 0.738 µM
- CC50 (SNB-78; read-out: LC-50, PG=-50): 25.2 µM
- Percent Growth (SK-MEL-5; [2]): -90%
- Percent Growth (SK-MEL-5; Log10 Concentration -5.0): -79%
- Percent Growth (SK-MEL-5; Log10 Concentration -6.0, 1 µM): 77%
- Percent Growth (SK-MEL-5; [3]): 94%
- Percent Growth (SK-MEL-5; Log10 Concentration -8.0): 92%
- TGI (SK-MEL-5; PG=0): 3.11 µM
- GI50 (SK-MEL-5; PG=+50): 1.49 µM
- CC50 (SK-MEL-5; read-out: LC-50, PG=-50): 6.49 µM
- Percent Growth (OVCAR-8; [2]): -95%
- Percent Growth (OVCAR-8; Log10 Concentration -5.0): -5%
- Percent Growth (OVCAR-8; Log10 Concentration -6.0, 1 µM): 37%
- Percent Growth (OVCAR-8; [3]): 81%
- Percent Growth (OVCAR-8; Log10 Concentration -8.0): 89%
- TGI (OVCAR-8; PG=0): 7.69 µM
- GI50 (OVCAR-8; PG=+50): 0.516 µM
- CC50 (OVCAR-8; read-out: LC-50, PG=-50): 31.8 µM
- Percent Growth (HCT-15; [2]): -87%
- Percent Growth (HCT-15; Log10 Concentration -5.0): 76%
- Percent Growth (HCT-15; Log10 Concentration -6.0, 1 µM): 95%
- Percent Growth (HCT-15; [3]): 102%
- Percent Growth (HCT-15; Log10 Concentration -8.0): 111%
- TGI (HCT-15; PG=0): 29.3 µM
- GI50 (HCT-15; PG=+50): 14.5 µM
- CC50 (HCT-15; read-out: LC-50, PG=-50): 59.6 µM
- Percent Growth (IGROV1; [2]): -73%
- Percent Growth (IGROV1; Log10 Concentration -5.0): -15%
- Percent Growth (IGROV1; Log10 Concentration -6.0, 1 µM): 30%
- Percent Growth (IGROV1; [3]): 85%
- Percent Growth (IGROV1; Log10 Concentration -8.0): 97%
- TGI (IGROV1; PG=0): 4.71 µM
- GI50 (IGROV1; PG=+50): 0.438 µM
- CC50 (IGROV1; read-out: LC-50, PG=-50): 39.9 µM
- Percent Growth (NCI-H460; [2]): -85%
- Percent Growth (NCI-H460; Log10 Concentration -5.0): 8%
- Percent Growth (NCI-H460; Log10 Concentration -6.0, 1 µM): 78%
- Percent Growth (NCI-H460; [3]): 91%
- Percent Growth (NCI-H460; Log10 Concentration -8.0): 99%
- TGI (NCI-H460; PG=0): 12.1 µM
- GI50 (NCI-H460; PG=+50): 2.51 µM
- CC50 (NCI-H460; read-out: LC-50, PG=-50): 42.1 µM
- Percent Growth (UO-31; [2]): -94%
- Percent Growth (UO-31; Log10 Concentration -5.0): 36%
- Percent Growth (UO-31; Log10 Concentration -6.0, 1 µM): 72%
- Percent Growth (UO-31; [3]): 76%
- Percent Growth (UO-31; Log10 Concentration -8.0): 103%
- TGI (UO-31; PG=0): 18.8 µM
- GI50 (UO-31; PG=+50): 3.99 µM
- CC50 (UO-31; read-out: LC-50, PG=-50): 45.7 µM
- Percent Growth (CAKI-1; [2]): -89%
- Percent Growth (CAKI-1; Log10 Concentration -6.0, 1 µM): 56%
- Percent Growth (CAKI-1; [3]): 106%
- Percent Growth (CAKI-1; Log10 Concentration -8.0): 116%
- TGI (CAKI-1; PG=0): 5.89 µM
- GI50 (CAKI-1; PG=+50): 1.21 µM
- CC50 (CAKI-1; read-out: LC-50, PG=-50): 28.8 µM
- Percent Growth (COLO 205; [2]): -28%
- Percent Growth (COLO 205; Log10 Concentration -5.0): -23%
- Percent Growth (COLO 205; Log10 Concentration -6.0, 1 µM): 24%
- Percent Growth (COLO 205; [3]): 92%
- Percent Growth (COLO 205; Log10 Concentration -8.0): 119%
- TGI (COLO 205; PG=0): 3.2 µM
- GI50 (COLO 205; PG=+50): 0.416 µM
- CC50 (COLO 205; read-out: LC-50, PG=-50): > 100 µM
- Percent Growth (OVCAR-5; [2]): -83%
- Percent Growth (OVCAR-5; Log10 Concentration -5.0): 19%
- Percent Growth (OVCAR-5; Log10 Concentration -6.0, 1 µM): 97%
- Percent Growth (OVCAR-5; [3]): 113%
- Percent Growth (OVCAR-5; Log10 Concentration -8.0): 108%
- TGI (OVCAR-5; PG=0): 15.2 µM
- GI50 (OVCAR-5; PG=+50): 3.99 µM
- CC50 (OVCAR-5; read-out: LC-50, PG=-50): 47.4 µM
- GI50 (SW-620; SW-620): 0.279 µM
- CC50 (SW-620; SW-620, read-out: LC-50): 28.6 µM
- activity at 0.01 µM (SW-620; [4]): 89%
- activity at 0.1 µM (SW-620; [4]): 76%
- activity at 1 µM (SW-620; [4]): 18%
- activity at 10 µM (SW-620; [4]): -21%
- activity at 100 µM (SW-620; [4]): -85%
- IC (TGI) (SW-620; SW-620, read-out: TGI): 2.87 µM
- Percent Growth (ACHN; [2]): -92%
- Percent Growth (ACHN; Log10 Concentration -5.0): 30%
- Percent Growth (ACHN; Log10 Concentration -6.0, 1 µM): 81%
- Percent Growth (ACHN; [3]): 96%
- Percent Growth (ACHN; Log10 Concentration -8.0): 101%
- TGI (ACHN; PG=0): 17.6 µM
- GI50 (ACHN; PG=+50): 4.02 µM
- CC50 (ACHN; read-out: LC-50, PG=-50): 45.1 µM
- GI50 (EKVX): 3.6 µM
- activity at 0.01 µM (EKVX; read-out: Percent Growth): 109%
- activity at 0.1 µM (EKVX; read-out: Percent Growth): 114%
- activity at 1 µM (EKVX; read-out: Percent Growth): 86%
- activity at 10 µM (EKVX; read-out: Percent Growth): 22%
- activity at 100 µM (EKVX; read-out: Percent Growth): -22%
- IC (TGI) (EKVX; read-out: TGI): 31.2 µM
